Data as given in PubChem BioAssay AID248 (DTP/NCI, 2004).
Toxic doses and inconclusive results are not listed. Rule as the data show it: active = T/C of 150% or more; inactive = T/C below 125%.

Tested on: L1210 leukemia ip in BDF1 mice, survival T/C
Assay: NCI In Vivo Anticancer Drug Screen. Data for tumor model L1210 Leukemia (intraperitoneal) in B6D2F1 (BDF1) mice
Details: endpoint: mean survival time, higher = longer survival
Outline: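 Tumor cells were implanted, animals were treated, and survival was followed. The result divides the treated measurement by the vehicle-control measurement.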

[1] = dose: 200.0 mg/kg/injection, schedule: Q01DX009 (ip), vehicle: saline with Tween-80
[2] = dose: 100.0 mg/kg/injection, schedule: Q04DX003 (ip), vehicle: Klucel (hydroxypropylcellulose) (HPC)
[3] = dose: 200.0 mg/kg/injection, schedule: Q04DX003 (ip), vehicle: Klucel (hydroxypropylcellulose) (HPC)
[4] = dose: 400.0 mg/kg/injection, schedule: Q04DX003 (ip), vehicle: Klucel (hydroxypropylcellulose) (HPC)
[5] = dose: 100.0 mg/kg/injection, schedule: Q04DX002 (ip), vehicle: Klucel (hydroxypropylcellulose) (HPC)
[6] = dose: 200.0 mg/kg/injection, schedule: Q04DX002 (ip), vehicle: Klucel (hydroxypropylcellulose) (HPC)
[7] = dose: 400.0 mg/kg/injection, schedule: Q04DX002 (ip), vehicle: Klucel (hydroxypropylcellulose) (HPC)
[8] = dose: 100.0 mg/kg/injection, schedule: Q01DX001 (ip), vehicle: saline
[9] = dose: 200.0 mg/kg/injection, schedule: Q01DX001 (ip), vehicle: saline

Measured: T/C

C/C=C(/C)C(=O)O[C@H]1CC[C@@]2(C)[C@@H]3CC[C@H]4[C@]5(O)C[C@H](O)[C@@]6(O)[C@@H](CN7C[C@@H](C)CC[C@H]7[C@@]6(C)O)[C@]5(O)C[C@@]42O[C@@]13O
inactive: dose: 0.5 mg/kg/injection, schedule: Q01DX001 (ip), vehicle: saline 95 % of control | dose: 1.0 mg/kg/injection, schedule: Q01DX001 (ip), vehicle: saline 98 % of control | dose: 1.5 mg/kg/injection, schedule: Q04DX003 (ip), vehicle: saline with Tween-80 102 % of control | dose: 2.0 mg/kg/injection, schedule: Q01DX001 (ip), vehicle: saline 95 % of control | dose: 4.0 mg/kg/injection, schedule: Q01DX001 (ip), vehicle: saline 101 % of control | dose: 5.0 mg/kg/injection, schedule: Q01DX001 (ip), vehicle: saline 95 % of control

C1CCC(C2CCCC(C3CCCCC3)C2)CC1 (configuration not stated)
inactive: dose: 100.0 mg/kg/injection, schedule: Q01DX001 (ip), vehicle: carboxymethylcellulose (CMC) 94 % of control | dose: 200.0 mg/kg/injection, schedule: Q01DX001 (ip), vehicle: carboxymethylcellulose (CMC) 96 % of control | dose: 400.0 mg/kg/injection, schedule: Q01DX001 (ip), vehicle: carboxymethylcellulose (CMC) 94 % of control

COC(=O)/C=C(\C)Nc1ccc(C(=O)C2CCCCC2)cc1
inactive: dose: 100.0 mg/kg/injection, schedule: Q01DX001 (ip), vehicle: other 90 % of control | dose: 200.0 mg/kg/injection, schedule: Q01DX001 (ip), vehicle: other 95 % of control | dose: 400.0 mg/kg/injection, schedule: Q01DX001 (ip), vehicle: other 96 % of control

N=c1ccccn1CC(O)COc1cccc([N+](=O)[O-])c1 (configuration not stated)
inactive: dose: 100.0 mg/kg/injection, schedule: Q04DX002 (ip), vehicle: other 97 % of control | dose: 200.0 mg/kg/injection, schedule: Q04DX002 (ip), vehicle: other 93 % of control

Cc1cc(C)c(OS(=O)(=O)c2ccc([N+](=O)[O-])cc2)c(C)c1
inactive: [1] 87 % of control | dose: 400.0 mg/kg/injection, schedule: Q01DX009 (ip), vehicle: saline with Tween-80 89 % of control

Cc1cc(C(=O)O)c(C)cc1C(=O)O
inactive: dose: 100.0 mg/kg/injection, schedule: Q04DX003 (ip), vehicle: saline with Tween-80 98 % of control | dose: 200.0 mg/kg/injection, schedule: Q04DX003 (ip), vehicle: saline with Tween-80 93 % of control | dose: 400.0 mg/kg/injection, schedule: Q04DX003 (ip), vehicle: saline with Tween-80 98 % of control

O=C(Nc1ccccc1F)C(F)(F)F
inactive: [2] 103 % of control | [3] 105 % of control | [4] 97 % of control

CCCCCCCCCCCCCCCCCCNC(=S)NCCCCCCCCCCCCCCCC
inactive: dose: 55.0 mg/kg/injection, schedule: Q01DX Z (ip), vehicle: methylcellulose (MC) 123 % of control | dose: 83.0 mg/kg/injection, schedule: Q01DX Z (ip), vehicle: methylcellulose (MC) 106 % of control | dose: 125.0 mg/kg/injection, schedule: Q01DX Z (ip), vehicle: methylcellulose (MC) 104 % of control

Nc1ccc2c(c1)oc1ccccc12
inactive: [5] 107 % of control | [6] 103 % of control | [7] 110 % of control

c1ccc(C2=C(c3ccccc3)c3cccc4cccc2c34)cc1
inactive: dose: 100.0 mg/kg/injection, schedule: Q01DX001 (ip), vehicle: acetone 100 % of control | dose: 100.0 mg/kg/injection, schedule: Q01DX009 (ip), vehicle: acetone 87 % of control | dose: 100.0 mg/kg/injection, schedule: Q04DX003 (ip), vehicle: saline 94 % of control | dose: 200.0 mg/kg/injection, schedule: Q01DX001 (ip), vehicle: acetone 89 % of control | dose: 200.0 mg/kg/injection, schedule: Q01DX009 (ip), vehicle: acetone 96 % of control | dose: 200.0 mg/kg/injection, schedule: Q04DX003 (ip), vehicle: saline 97 % of control | dose: 400.0 mg/kg/injection, schedule: Q01DX001 (ip), vehicle: acetone 94 % of control | dose: 400.0 mg/kg/injection, schedule: Q01DX009 (ip), vehicle: acetone 87 % of control | dose: 400.0 mg/kg/injection, schedule: Q04DX003 (ip), vehicle: saline 92 % of control

COC(=O)Nc1ccc(C(C)=O)cc1
inactive: dose: 20.0 mg/kg/injection, schedule: Q01DX009 (ip), vehicle: saline with Tween-80 95 % of control | dose: 40.0 mg/kg/injection, schedule: Q01DX009 (ip), vehicle: saline with Tween-80 91 % of control | dose: 80.0 mg/kg/injection, schedule: Q01DX009 (ip), vehicle: saline with Tween-80 93 % of control | dose: 160.0 mg/kg/injection, schedule: Q01DX009 (ip), vehicle: saline with Tween-80 101 % of control | dose: 320.0 mg/kg/injection, schedule: Q01DX009 (ip), vehicle: saline with Tween-80 90 % of control

O=C(O)c1ccc(CC2CCCC2)cc1
inactive: dose: 100.0 mg/kg/injection, schedule: Q01DX001 (ip), vehicle: Klucel (hydroxypropylcellulose) (HPC) 96 % of control | [2] 93 % of control | dose: 200.0 mg/kg/injection, schedule: Q01DX001 (ip), vehicle: Klucel (hydroxypropylcellulose) (HPC) 103 % of control | [3] 93 % of control | dose: 400.0 mg/kg/injection, schedule: Q01DX001 (ip), vehicle: Klucel (hydroxypropylcellulose) (HPC) 97 % of control | [4] 98 % of control

O=c1[nH]c(Cc2ccccc2)c(Br)c(=O)[nH]1
inactive: dose: 50.0 mg/kg/injection, schedule: Q01DX001 (ip), vehicle: saline 102 % of control | [8] 100 % of control | dose: 100.0 mg/kg/injection, schedule: Q01DX009 (ip), vehicle: saline with Tween-80 104 % of control | dose: 100.0 mg/kg/injection, schedule: Q## X009 (ip), vehicle: saline with Tween-80 104 % of control | [9] 100 % of control | [1] 92 % of control | dose: 200.0 mg/kg/injection, schedule: Q## X009 (ip), vehicle: saline with Tween-80 92 % of control | dose: 400.0 mg/kg/injection, schedule: Q01DX001 (ip), vehicle: saline 94 % of control

CC1CCC2(OC1)OC1CC3C4CCC5CC(=O)CCC5(C)C4CCC3(C)C1C2C (configuration not stated)
inactive: [5] 102 % of control | [6] 105 % of control | [7] 94 % of control

O=C(O)CCCCCCC(=O)c1ccccc1
inactive: dose: 100.0 mg/kg/injection, schedule: Q01DX001 (ip), vehicle: saline with Tween-80 98 % of control | dose: 200.0 mg/kg/injection, schedule: Q01DX001 (ip), vehicle: saline with Tween-80 95 % of control | dose: 400.0 mg/kg/injection, schedule: Q01DX001 (ip), vehicle: saline with Tween-80 98 % of control

S=c1[nH]n(-c2ccccc2)c(=S)s1
inactive: [8] 100 % of control | [9] 105 % of control

CC(=O)OC1C(CF)OC(n2ccc(=O)[nH]c2=O)C1OC(C)=O (configuration not stated)
inactive: dose: 100.0 mg/kg/injection, schedule: Q01DX005 (ip), vehicle: saline 105 % of control | dose: 200.0 mg/kg/injection, schedule: Q01DX005 (ip), vehicle: saline 123 % of control

CCC(CC)COCCCN
inactive: dose: 12.5 mg/kg/injection, schedule: Q01DX009 (ip), vehicle: saline with Tween-80 97 % of control | dose: 12.5 mg/kg/injection, schedule: Q04DX003 (ip), vehicle: saline with Tween-80 97 % of control | dose: 25.0 mg/kg/injection, schedule: Q01DX009 (ip), vehicle: saline with Tween-80 98 % of control | dose: 25.0 mg/kg/injection, schedule: Q04DX003 (ip), vehicle: saline with Tween-80 95 % of control | dose: 50.0 mg/kg/injection, schedule: Q01DX009 (ip), vehicle: saline with Tween-80 93 % of control | dose: 50.0 mg/kg/injection, schedule: Q04DX003 (ip), vehicle: saline with Tween-80 94 % of control
